Measurements reported in patent US20250171495A1, “MUTLI-TARGETED SERINE PROTEASE INHIBITORS FOR TREATMENT OF CANCER AND VIRAL INFECTION” (Washington University, priority 2023, published 2025).
Numbered stars: 1 amine (or outer) side, 2 acyl side, 3 side chain; on linkers, the order of the positions; unused ones are H or OH. Square brackets hold non-standard residues; d marks the D form. Peptide text beside a SMILES is read from it. X1 = N=C(N)NCCC[C@H](N[*:1])C(=O)c1nc2ccc(C(=O)[*:2])cc2s1

tested on: VSV-SARS-CoV-2; experiment: microbe, parasite or virus in culture; conditions: Vesicular stomatitis virus, Calu-3, in Homo sapiens, read-out: VSV SARS CoV-2 Cell Entry EC50 (nM)

Compound	EC50 [nM]
CC(=O)N[C@H]1Cc2ccc(cc2)OCCCC[C@@H](C(=O)N[C@@H](CCCNC(=N)N)C(=O)c2nc3ccccc3s2)NC(=O)[C@@H](Cc2c[nH]c3ccccc23)NC1=O [VD4162B, N-[(S)-1-[(1,3-benzothiazol-2-yl)carbonyl]-4-guanidinobutyl]-(7S,10R,13S)-13-acetylamino-10-[(3-indolyl)methyl]-9,12-dioxo-2-oxa-8,11-diazabicyclo[13.2.2]nonadeca-1(17),15,18-triene-7-carboxamide]	2060
CC(=O)N[C@H]1Cc2ccc(cc2)Oc2cccc(c2)C[C@@H](C(=O)N[C@@H](CCCNC(=N)N)C(=O)c2nc3ccccc3s2)NC(=O)[C@H](CC(C)C)NC1=O [VD5064B, N-[(S)-1-[(1,3-benzothiazol-2-yl)carbonyl]-4-guanidinobutyl]-(9S,12S,15S)-15-acetylamino-12-isobutyl-11,14-dioxo-2-oxa-10,13-diazatricyclo[15.2.2.1^3,^7]docosa-1(19),3,5,7(22),17,20-hexaene-9-carboxamide]	8370
CC(=O)N[C@@H](CO)C(=O)N[C@@H](CCCCN)C(=O)N[C@@H](Cc1ccccc1)C(=O)N[C@@H](CCCNC(=N)N)C(=O)c1nccs1 [ZFH6095, N-[(S)-1-[N-(S)-4-guanidino-1-[(1,3-thiazol-2-yl)carbonyl]butylcarbamoyl]-2-phenylethyl](S)-2-[(S)-2-acetylamino-3-hydroxypropionylamino]-6-aminohexanamide]	1160
CC(=O)N[C@@H](CCCCN)C(=O)N[C@@H](CCC(N)=O)C(=O)N[C@@H](Cc1ccccc1)C(=O)N[C@@H](CCCNC(=N)N)C(=O)c1nccs1 [ZFH6101, N-[(S)-1-[N-(S)-4-guanidino-1-[(1,3-thiazol-2-yl)carbonyl]butylcarbamoyl]-2-phenylethyl](S)-2-[(S)-1-acetylamino-5-aminopentylcarbonylamino] glutaramide]	262
CC(=O)N[C@@H](CO)C(=O)N[C@@H](CCC(N)=O)C(=O)N[C@@H](CC(C)C)C(=O)N[C@@H](CCCNC(=N)N)C(=O)c1nccs1 [ZFH6138, N-[(S)-3-methyl-1-[N-(S)-4-guanidino-1-[(1,3-thiazol-2-yl)carbonyl]butylcarbamoyl]butyl](S)-2-[(S)-2-acetylamino-3-hydroxypropionylamino]glutaramide]	1320
CC(=O)N[C@@H](CC(C)C)C(=O)N[C@@H](CC(C)C)C(=O)N[C@@H](CCCNC(=N)N)C(=O)c1nccs1 [ZFH6201-1, N-[(S)-4-guanidino-1-[(1,3-thiazol-2-yl)carbonyl]butyl](S)-2-[(S)-2-acetylamino-4-methylvalerylamino]-4-methylvaleramide]	1840
CC(=O)N[C@@H](CCCCN)C(=O)N[C@@H](CCC(N)=O)C(=O)N[C@@H](CC(C)C)C(=O)N[C@@H](CCCNC(=N)N)C(=O)c1nc2ccccc2s1 [ZFH7006, N-[(S)-3-methyl-1-[N-(S)-1-[(1,3-benzothiazol-2-yl)carbonyl]-4-guanidinobutylcarbamoyl]butyl](S)-2-[(S)-1-acetylamino-5-aminopentylcarbonyl-amino]glutaramide]	572
CC(=O)N[C@@H](CO)C(=O)N[C@@H](CCCCN)C(=O)N[C@@H](CC(C)C)C(=O)N[C@@H](CCCNC(=N)N)C(=O)c1nc2ccccc2s1 [ZFH7053, N-[(S)-3-methyl-1-[N-(S)-1-[(1,3-benzothiazol-2-yl)carbonyl]-4-guanidinobutylcarbamoyl]butyl](S)-2-[(S)-2-acetylamino-3-hydroxypropionylamino]-6-aminohexanamide]	4270
CC(=O)N[C@@H](Cc1ccccc1)C(=O)N[C@@H](CC(C)C)C(=O)N[C@@H](Cc1ccccc1)C(=O)N[C@@H](CCCNC(=N)N)C(=O)c1nc2ccccc2s1 [ZFH7063, N-[(S)-1-[N-(S)-1-[(1,3-benzothiazol-2-yl)carbonyl]-4-guanidinobutylcarbamoyl]-2-phenylethyl](S)-2-[(S)-2-acetylamino-3-phenylpropionylamino]-4-methylvaleramide]	101
CC(=O)N[C@@H](CO)C(=O)N[C@@H](CCCCN)C(=O)N[C@@H](CC(C)C)C(=O)N[C@@H](CCCNC(=N)N)C(=O)c1nc2ccc(C(=O)N[C@H](C(N)=O)C(C)C)cc2s1 [ZFH7116, N-[(S)-1-carbamoyl-2-methylpropyl]-2-[(S)-2-[(S)-2-[(S)-1-[(S)-2-acetylamino-3-hydroxypropionylamino]-5-aminopentylcarbonyl-amino]-4-methylvalerylamino]-5-guanidinovaleryl]-1,3-benzothiazole-6-carboxamide] (Ac-SKL[X1]V-NH2)	489

tested on: VSV-SARS-CoV-2; experiment: not given; conditions: VSV-

Compound	EC50 [nM]
CC(=O)N[C@H]1CC(=O)NCCCC[C@@H](C(=O)N[C@@H](CCCNC(=N)N)C(=O)c2nc3ccccc3s2)NC(=O)[C@H](CC(C)C)NC1=O [VD2173, Ac-Cyclo(DLK)—R-ketobenzothiazole]	197

same assay, conditions: read-out: VSV SARS CoV-2 Cell Entry EC50

Compound	EC50 [nM]
CC(=O)N[C@@H](CCCCN)C(=O)N[C@@H](CCC(N)=O)C(=O)N[C@@H](CC(C)C)C(=O)N[C@@H](CCCNC(=N)N)C(=O)c1nc2ccccc2s1 [ZFH7006, N-[(S)-3-methyl-1-[N-(S)-1-[(1,3-benzothiazol-2-yl)carbonyl]-4-guanidinobutylcarbamoyl]butyl](S)-2-[(S)-1-acetylamino-5-aminopentylcarbonyl-amino]glutaramide]	652
